Data published in the NIST ThermoML archive (doi:10.1021/je900327x).
± gives the expanded uncertainty stated by the source.

Experiments:
[1] = 298.15 K; 101.33 kPa; Liquid; Vibrating tube method
[2] = refractive index (Na D-line) (dimensionless); conditions: 298.15 K; 101.33 kPa; Liquid; Standard Abbe refractometry

Row | SMILES | mass density [1] | refractive index [2]
1 | C1COCO1 [1,3-dioxolane] | 1058.87 ± 0.15 kg/m3 | 1.39779 ± 0.00068
2 | CC(C)CC(C)(C)C [2,2,4-trimethylpentane] | 687.73 ± 0.21 kg/m3 | 1.38887 ± 0.00068
3 | CC(C)O [propan-2-ol] | 781.01 ± 0.2 kg/m3 | 1.37509 ± 0.00068
